Consider one compound from ChEMBL document CHEMBL4765311, “Synthesis and biological evaluation of 4-(pyridin-4-oxy)-3-(3,3-difluorocyclobutyl)-pyrazole derivatives as novel potent transforming growth factor-β type 1 receptor inhibitors” (Eur J Med Chem, 2020).

Each structure is given as a SMILES string.

Series [1] can be described thus: in vivo. As to conditions: BALB/c, mouse, po, 10 mg/kg.
The nature of series [2]: in vivo. As to conditions: BALB/c, mouse, po, 10 mg/kg. This is another data set of the same source.
The nature of series [3]: in vivo. As to conditions: BALB/c, mouse, iv, 1 mg/kg.
A short description of series [4]: in vivo. As to conditions: BALB/c, mouse, po, 10 mg/kg. The source holds these as a separate data set.
Series [5] can be described thus: in vivo. As to conditions: BALB/c, mouse, iv, 1 mg/kg. The source holds these as a separate data set.
Series [6] is described as follows: in vivo. To be noted: BALB/c, mouse, iv, 1 mg/kg. This is another data set of the same source.

On to `CC(C)(O)c1cc(Nc2cc(Oc3cn(C4CC4)nc3C3CCOCC3)ccn2)ccn1` [LY-3200882], for which the half-life (usually the time needed for the level to fall by half in the phase considered) at 24 h in series [1] is 66 min; in series [6], 24 min. Also, the Cmax (usually the highest concentration seen after dosing) at 24 h in series [2] amounted to 747 ng/mL. For the same compound, the Vd (as a rule, a proportionality between amount in the body and measured concentration, not a real space) at 24 h in series [3] is 2.3 L/kg. Further, in series [4], the bioavailability (in general, dose-corrected exposure relative to a reference, in per cent) at 24 h turned out to be 45.6%. The clearance – broadly, the rate of elimination divided by the concentration – at 24 h in series [5] is 86.7 mL/min/kg.
